Laboratory results as given in ChEMBL document CHEMBL5252512, “Recent Progress in the Development of HIV-1 Protease Inhibitors for the Treatment of HIV/AIDS” (J Med Chem, 2016).
Where a SMILES comes first, the peptide text is derived from it. Bridges are numbered along the chain shown (N, C = ends). Roman numbers before positions name the chains, in order. [ ]: non-standard residue; d: D form. The star is where a group is joined. ξ: configuration not given here. C16 diacid = O=C(O)CCCCCCCCCCCCCCC(=O)*; Phe(4-NH2) = Nc1ccc(C[C@H](N)C(=O)O)cc1; Ile(3ξ) = CCC(C)[C@H](N)C(=O)O; NHPhenethyl = c1ccc(CCN*)cc1

Tests used:
[1] = biological target: T1, Human immunodeficiency virus type 1 protease (Human immunodeficiency virus 1, UniProt Q72874); assay: Binding affinity to HIV1 protease assessed as inhibition constant
[2] = system: Human immunodeficiency virus 1; assay: Antiviral activity against wild type HIV1 ERS104pre infected in human PBMC cells assessed as inhibition of virus-induced cytopathic effect measured after 7 days by MTT assay; assay type: functional, organism-based; settings: Human immunodeficiency virus 1, ERS104pre, 168 h
[3] = system: Human immunodeficiency virus 1; assay: Antiviral activity against multidrug-resistant HIV1-MM infected in phytohemagglutinin-activated human PBMC cells assessed as inhibition of virus-induced cytopathic effect measured after 7 days by MTT assay; assay type: functional, organism-based; settings: Human immunodeficiency virus 1, MM, 168 h
[4] = system: Human immunodeficiency virus 1; assay: Antiviral activity against multidrug-resistant HIV1-JSL infected in phytohemagglutinin-activated human PBMC cells assessed as inhibition of virus-induced cytopathic effect measured after 7 days by MTT assay; assay type: functional, organism-based; settings: Human immunodeficiency virus 1, JSL, 168 h
[5] = system: Human immunodeficiency virus 1; assay: Antiviral activity against multidrug-resistant HIV1-G infected in phytohemagglutinin-activated human PBMC cells assessed as inhibition of virus-induced cytopathic effect measured after 7 days by MTT assay; assay type: functional, organism-based; settings: Human immunodeficiency virus 1, G, 168 h
[6] = system: Human immunodeficiency virus 1; assay: Antiviral activity against multidrug-resistant HIV1-B infected in phytohemagglutinin-activated human PBMC cells assessed as inhibition of virus-induced cytopathic effect measured after 7 days by MTT assay; assay type: functional, organism-based; settings: Human immunodeficiency virus 1, B, 168 h
[7] = system: Human immunodeficiency virus 1; assay: Antiviral activity against multidrug-resistant HIV1-C infected in phytohemagglutinin-activated human PBMC cells assessed as inhibition of virus-induced cytopathic effect measured after 7 days by MTT assay; assay type: functional, organism-based; settings: Human immunodeficiency virus 1, C, 168 h
[8] = system: Human immunodeficiency virus 1; assay: Antiviral activity against multidrug-resistant HIV1-TM infected in phytohemagglutinin-activated human PBMC cells assessed as inhibition of virus-induced cytopathic effect measured after 7 days by MTT assay; assay type: functional, organism-based; settings: Human immunodeficiency virus 1, TM, 168 h
[9] = biological target: T1, Human immunodeficiency virus type 1 protease; assay: Inhibition of recombinant HIV1 Protease
[10] = system: Human immunodeficiency virus 1; assay: Antiviral activity against darunavir-resistant HIV1 10P infected in phytohemagglutinin-activated human PBMC cells assessed as inhibition of virus-induced cytopathic effect measured after 7 days by MTT assay; assay type: functional, organism-based; settings: Human immunodeficiency virus 1, 10P, 168 h
[11] = system: Human immunodeficiency virus 1; assay: Ratio of EC50 for antiviral activity against HIV1-JSL to EC50 for antiviral activity against wild type HIV1 ERS104pre; assay type: functional
[12] = system: Human immunodeficiency virus 1; assay: Ratio of EC50 for antiviral activity against HIV1-MM to EC50 for antiviral activity against wild type HIV1 ERS104pre; assay type: functional
[13] = system: Human immunodeficiency virus 1; assay: Ratio of EC50 for antiviral activity against HIV1-TM to EC50 for antiviral activity against wild type HIV1 ERS104pre; assay type: functional
[14] = system: Human immunodeficiency virus 1; assay: Ratio of EC50 for antiviral activity against HIV1-B to EC50 for antiviral activity against wild type HIV1 ERS104pre; assay type: functional
[15] = system: Human immunodeficiency virus 1; assay: Antiviral activity against darunavir-resistant HIV1 20P infected in phytohemagglutinin-activated human PBMC cells assessed as inhibition of virus-induced cytopathic effect measured after 7 days by MTT assay; assay type: functional, organism-based; settings: Human immunodeficiency virus 1, 20P, 168 h
[16] = system: Human immunodeficiency virus 1; assay: Ratio of EC50 for antiviral activity against HIV1-G to EC50 for antiviral activity against wild type HIV1 ERS104pre; assay type: functional
[17] = system: Human immunodeficiency virus 1; assay: Ratio of EC50 for antiviral activity against HIV1-C to EC50 for antiviral activity against wild type HIV1 ERS104pre; assay type: functional
[18] = biological target: T1, Human immunodeficiency virus type 1 protease; assay: Binding affinity to wild-type HIV1 protease expressed in Escherichia coli by fluorometric assay
[19] = system: Human immunodeficiency virus 1; assay: Antiviral activity against HIV1 LAI infected in human MT2 cells assessed as inhibition of virus-induced cytopathic effect by MTT assay; assay type: functional, organism-based; settings: Human immunodeficiency virus 1, LAI

COc1ccc(S(=O)(=O)N(CC(C)C)C[C@@H](O)[C@H](Cc2ccccc2)NC(=O)O[C@H]2CO[C@H]3C[C@@H]4OCC[C@@H]4[C@H]32)cc1
Ki [1]: 1.39 nM

O=C(Cc1cccc2ccccc12)O[C@H]1CNC[C@@H]1OC(=O)Cc1cccc2ccccc12
Ki [1]: 20000 nM

CC(C)(C)NC(=O)[C@@H]1C[C@@H]2CCCC[C@@H]2CN1C[C@@H](O)[C@H](Cc1ccccc1)NC(=O)[C@H](CC(N)=O)NC(=O)c1ccc2ccccc2n1
EC50 [2]: 4 nM
EC50 [3]: 110 nM
EC50 [4]: 290 nM
EC50 [5]: 33 nM
EC50 [6]: 270 nM
EC50 [7]: 35 nM
EC50 [8]: 100 nM

CC(C)C[C@H](NC(=O)[C@@H](NC(=O)CCCCCCCCCCCCCCC(=O)N[C@@H](CC(N)=O)C(=O)N[C@@H](Cc1ccccc1)C(=O)O)[C@@H](C)O)C(=O)NCCc1ccc(Oc2ccc(O)cc2)cc1
IC50 [9]: 96 nM

COc1ccc(S(=O)(=O)N(CC(C)C)C[C@@H](O)[C@H](Cc2ccccc2)NC(=O)O[C@@H]2CO[C@@H]3O[C@H]4OCC[C@H]4[C@@H]32)cc1
EC50 [2]: 347 nM
EC50 [10]: > 1000 nM
Ratio EC50 [11]: >3
EC50 [3]: 787 nM
Ratio EC50 [12]: 2
Ratio EC50 [13]: 2
Ratio EC50 [14]: 2
EC50 [15]: > 1000 nM
Ratio EC50 [16]: 2
EC50 [4]: > 1000 nM
Ratio EC50 [17]: 1
EC50 [5]: 656 nM
EC50 [6]: 612 nM
EC50 [7]: 514 nM
EC50 [8]: 530 nM

CC(C)CN(C[C@@H](O)[C@H](Cc1ccccc1)NC(=O)O[C@H]1CCOC1)S(=O)(=O)c1ccc(N)cc1
EC50 [2]: 29 nM
EC50 [10]: > 1000 nM
EC50 [3]: 270 nM
EC50 [15]: > 1000 nM
EC50 [4]: 430 nM
EC50 [5]: 310 nM
EC50 [6]: 360 nM
EC50 [7]: 210 nM
EC50 [8]: 300 nM

NC(=O)CN(Cc1ccc(N)cc1)C(=O)CN(CC1CCCCC1)C(=O)CN(Cc1ccc(N)cc1)C(=O)CCCCCCCCCCCCCCC(=O)N(CC(=O)N(CC(=O)O)Cc1ccccc1)Cc1ccc(N)cc1
Ki [1]: 135 nM

O=S1(=O)N(Cc2ccccc2-c2cc3ccccc3o2)C[C@H](O)[C@@H](O)CN1Cc1ccccc1-c1cc2ccccc2o1
Ki [18]: 530 nM

O=C(Cc1cccc2ccccc12)Nc1ccccc1CN1C[C@H](O)[C@@H](O)CN(Cc2ccccc2)S1(=O)=O
Ki [18]: 140 nM

COc1ccc(S(=O)(=O)N(CC(C)C)C[C@@H](O)[C@H](Cc2ccccc2)n2cc(COC(=O)N[C@H]3c4ccccc4C[C@H]3O)nn2)cc1
IC50 [9]: 6 nM
Ki [1]: 1.7 nM

CC(C)C[C@H](NC(=O)[C@@H](NC(=O)CCCCCCCCCCCCCCC(=O)N[C@@H](CC(N)=O)C(=O)N[C@@H](Cc1ccccc1)C(=O)O)[C@@H](C)O)C(=O)NCCc1ccccc1 (I: Asn-Phe-OH / II: Thr-Leu-NHPhenethyl; linker I:N-II:N via C16 diacid)
IC50 [9]: 5800 nM

CC(C)C[C@H](NC(=O)[C@@H](NC(=O)CCCCCCCCCCCCCCC(=O)N[C@@H](CC(N)=O)C(=O)N[C@@H](Cc1ccccc1)C(=O)O)[C@@H](C)O)C(=O)NCCc1cccc(O)c1
IC50 [9]: 1130 nM

CCC(C)[C@H](NC(=O)[C@H](CCSC)NC(=O)CCCCCCCCCCCCCCC(=O)N[C@@H](CC(N)=O)C(=O)N[C@@H](Cc1ccccc1)C(=O)O)C(=O)N[C@@H](Cc1ccc(N)cc1)C(N)=O (stereo partly drawn) ({Phe-Asn-C16 diacid}-Met-[Ile(3ξ)]-[Phe(4-NH2)]-NH2)
Ki [1]: 85 nM

CCC(C)N(CC(=O)N(CC(N)=O)Cc1ccc(N)cc1)C(=O)CN(CCSC)C(=O)CCCCCCCCCCCCCCC(=O)N(CC(N)=O)CC(=O)N(CC(=O)O)Cc1ccccc1 (centres undefined)
Ki [1]: 801 nM

C[C@H](Cc1cc2c(cc1O)OCO2)[C@H](C)Cc1cc2c(cc1O)OCO2
IC50 [9]: 5600 nM

COC(=O)[C@@H](NC(=O)[C@H](CC(C)C)NC(=O)[C@@H](NC(=O)CCCOc1ccc2ccc(OCCCC(=O)N[C@H](CCCCNC(=O)OCc3ccccc3)C(=O)NNC(=O)c3cc(NC(C)=O)ccc3OC)cc2c1)C(C)C)C(C)C
Ki [1]: 60 nM

O=C(Cc1cccc2ccccc12)Nc1ccccc1CN1C[C@H](O)[C@@H](O)CN(Cc2ccccc2Br)S1(=O)=O
Ki [18]: 280 nM

CC(C)CN(C[C@@H](O)[C@H](Cc1ccccc1)NC(=O)O[C@H]1CO[C@H]2OCC[C@H]21)S(=O)(=O)c1ccc2c(c1)OCO2
EC50 [2]: 0.5 nM
Ratio EC50 [11]: 12
EC50 [3]: 3.8 nM
Ratio EC50 [12]: 8
Ratio EC50 [13]: 6
Ratio EC50 [14]: 8
Ratio EC50 [16]: 7
EC50 [4]: 6 nM
Ratio EC50 [17]: 5
EC50 [5]: 3.4 nM
EC50 [6]: 3.9 nM
EC50 [7]: 2.7 nM
EC50 [8]: 3.2 nM

CC(C)C[C@H](NC(=O)[C@@H](NC(=O)CCCCCCCCCCCCCCC(=O)N[C@@H](CC(N)=O)C(=O)N[C@@H](Cc1ccccc1)C(=O)O)[C@@H](C)O)C(=O)NCCc1ccc(N)cc1
IC50 [9]: 650 nM

Cc1c(O)cccc1C(=O)N[C@@H](CSc1ccccc1)[C@H](O)CN1C[C@H]2CCCC[C@H]2C[C@H]1C(=O)NC(C)(C)C
EC50 [7]: 250 nM

O=C1C[C@@H](NC(=O)[C@H](OCc2cccc(Br)c2)[C@H](O)[C@@H](O)[C@@H](OCc2cccc(Br)c2)C(=O)N[C@H]2c3ccccc3C[C@H]2O)c2ccccc21
Ki [1]: 19 nM

COc1cccc2c1C(=O)C[C@H]2NC(=O)[C@H](OCc1cccc(Br)c1)[C@H](O)[C@@H](O)[C@@H](OCc1cccc(Br)c1)C(=O)N[C@H]1c2ccccc2C[C@H]1O
Ki [1]: 11 nM

COc1ccc(S(=O)(=O)N(CC(C)C)C[C@@H](O)[C@H](Cc2ccccc2)n2cc(CNC(=O)c3ccc(CNC(=O)OC(C)(C)C)cc3)nn2)cc1
IC50 [9]: 13 nM
Ki [1]: 4 nM

COC(=O)[C@@H](NC(=O)[C@H](CC(C)C)NC(=O)[C@@H](NC(=O)CCCOc1ccc2ccc(OCCCC(=O)N[C@H](CCCCNC(=O)OCc3ccccc3)C(=O)Nc3cccn(CC(N)=O)c3=O)cc2c1)C(C)C)C(C)C
Ki [1]: 40 nM

COc1ccc(S(=O)(=O)N(CC(C)C)C[C@@H](O)[C@@H]2Cc3ccc(cc3)OC/C=C/CCc3c(O)cccc3C(=O)N2)cc1
IC50 [19]: 210 nM
Ki [1]: 0.2 nM

O=C(Cc1cccc2ccccc12)Nc1ccccc1CN1C[C@H](O)[C@@H](O)CN(Cc2ccccc2NC(=O)Cc2cccc3ccccc23)S1(=O)=O
Ki [18]: 20 nM
